Series [1] relates to NCI-H1975. Put plainly: Antitumor activity against human NCI-H1975 cells harboring EGFR T790M mutant xenografted in po dosed BALB/c mouse assessed as tumor growth inhibition administered via gavage qd or qod for 14 days measured at 7 days post last dose. The class given is functional, organism-based. In general terms: A xenograft is tissue or cells of one species grown in another, often human tumour cells in immunodeficient mice.

Series [2] relates to NCI-H1975. The series can be described thus: Antitumor activity against human NCI-H1975 cells harboring EGFR T790M mutant xenografted in BALB/c mouse assessed as tumor growth inhibition at 20 mg/kg, po administered daily via gavage for 14 days measured at 7 days post last dose relative to control. The class given is functional.
The subject of series [3] is NCI-H1975. The series can be described thus: cells. To be noted: Homo sapiens, NCI-H1975, 72 h.
Description: Antiproliferative activity against human NCI-H1975 cells harboring EGFR T790M mutant after 72 hrs by CCK8 assay
The next series concerns HCC827. Put plainly: cells. The conditions noted are these: Homo sapiens, HCC827, 72 h.
In another series the test system is MDA-MB-453. The series can be described thus: Antiproliferative activity against human MDA-MB-453 cells after 72 hrs by CCK8 assay. The series is classed as functional, cell-based. The conditions noted are these: MDA-MB-453, 72 h. For orientation: Tetrazolium assays rely on reduction of a dye to a coloured formazan, in cell work by metabolically active cells.

The test system of a further series is A-431. The series can be described thus: cells. The conditions noted are these: Homo sapiens, A-431, 72 h.
Series [4] is described as follows: Oral bioavailability in Sprague-Dawley rat at 10 mg/kg. The series is classed as ADME, organism-based. The conditions noted are these: in vivo.
The nature of series [5]: Cmax in Sprague-Dawley rat at 5 mg/kg, iv or 10 mg/kg, po. The series is classed as ADME, organism-based. To be noted: in vivo.
Series [6] in a line: Half life in Sprague-Dawley rat at 5 mg/kg, iv or 10 mg/kg, po. The series is classed as ADME, organism-based. The conditions noted are these: in vivo.
The test system of series [7] is NCI-H1975. Put plainly: Antitumor activity against human NCI-H1975 cells harboring EGFR T790M mutant xenografted in BALB/c mouse assessed as tumor growth inhibition at 80 mg/kg, po administered every other day via gavage for 14 days measured at 7 days post last dose relative to control. The class given is functional.
The subject of series [8] is NCI-H1975. Put plainly: Antitumor activity against human NCI-H1975 cells harboring EGFR T790M mutant xenografted in BALB/c mouse assessed as tumor growth inhibition at 20 mg/kg, po administered every other day via gavage for 14 days measured at 7 days post last dose relative to control. The class given is functional.
Series [9] concerns NCI-H1975. The series can be described thus: Antitumor activity against human NCI-H1975 cells harboring EGFR T790M mutant xenografted in BALB/c mouse assessed as tumor growth inhibition at 5 mg/kg, po administered daily via gavage for 14 days measured at 7 days post last dose relative to control. The series is classed as functional.
Series [10] is described as follows: Tmax in Sprague-Dawley rat at 5 mg/kg, iv or 10 mg/kg, po. The series is classed as ADME, organism-based. The conditions noted are these: in vivo.
The target of series [11] is Epidermal growth factor receptor (Homo sapiens, UniProt P00533). The series can be described thus: Inhibition of recombinant human GST-tagged EGFR catalytic domain (668 to 1210 residues) expressed in baculovirus expression system using TK-biotin peptide as substrate measured after 10 mins by HTRF assay. (Time-resolved FRET reads energy transfer from a long-lived donor to a nearby acceptor.)
Chain of Epidermal growth factor receptor (P00533 whole entry, the tested form may be a part): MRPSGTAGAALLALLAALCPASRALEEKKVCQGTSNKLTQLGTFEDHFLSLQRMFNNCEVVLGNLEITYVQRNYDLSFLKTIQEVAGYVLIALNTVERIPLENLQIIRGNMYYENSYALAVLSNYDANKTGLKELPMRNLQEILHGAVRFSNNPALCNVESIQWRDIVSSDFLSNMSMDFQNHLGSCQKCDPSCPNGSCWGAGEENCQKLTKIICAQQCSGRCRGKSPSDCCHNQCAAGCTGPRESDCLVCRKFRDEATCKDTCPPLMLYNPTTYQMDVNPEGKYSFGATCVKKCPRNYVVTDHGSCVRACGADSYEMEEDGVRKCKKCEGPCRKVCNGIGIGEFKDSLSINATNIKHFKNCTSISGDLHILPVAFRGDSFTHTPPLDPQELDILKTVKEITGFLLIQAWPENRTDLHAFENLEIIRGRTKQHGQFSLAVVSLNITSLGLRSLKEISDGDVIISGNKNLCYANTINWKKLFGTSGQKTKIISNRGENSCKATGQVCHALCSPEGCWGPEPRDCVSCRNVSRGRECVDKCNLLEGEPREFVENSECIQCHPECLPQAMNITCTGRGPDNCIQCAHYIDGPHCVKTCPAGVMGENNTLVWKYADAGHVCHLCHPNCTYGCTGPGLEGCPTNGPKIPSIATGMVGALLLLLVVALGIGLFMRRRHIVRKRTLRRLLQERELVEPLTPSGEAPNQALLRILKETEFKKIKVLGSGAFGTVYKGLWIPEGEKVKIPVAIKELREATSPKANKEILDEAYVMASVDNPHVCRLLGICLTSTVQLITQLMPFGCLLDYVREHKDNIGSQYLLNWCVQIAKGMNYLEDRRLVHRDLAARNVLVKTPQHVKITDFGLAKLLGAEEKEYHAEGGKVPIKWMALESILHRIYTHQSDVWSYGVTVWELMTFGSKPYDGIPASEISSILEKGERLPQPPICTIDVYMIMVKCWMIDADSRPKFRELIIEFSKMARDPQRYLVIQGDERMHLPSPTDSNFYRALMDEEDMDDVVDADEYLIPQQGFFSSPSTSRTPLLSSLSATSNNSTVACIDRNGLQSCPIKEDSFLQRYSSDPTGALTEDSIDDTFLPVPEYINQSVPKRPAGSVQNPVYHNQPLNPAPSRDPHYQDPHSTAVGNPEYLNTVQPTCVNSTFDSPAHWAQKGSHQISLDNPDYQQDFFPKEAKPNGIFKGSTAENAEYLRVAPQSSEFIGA

Description for A-431: Antiproliferative activity against human A431 cells harboring wild-type EGFR after 72 hrs by CCK8 assay
Description for HCC827: Antiproliferative activity against human HCC827 cells harboring EGFR L858R mutant after 72 hrs by CCK8 assay

With `CCOCCOc1cc2ncnc(Nc3ccc(F)c(Cl)c3)c2cc1NC(=O)/C=C/CN(C)C` [listing 1 of 2 here], the TGI entry with NCI-H1975 [1] was “Dose-dependent effect”.
For orientation: inhibition in vivo means the drop in the measured response relative to a control, in per cent. Consider `CN(C)C/C=C/C(=O)Nc1cc2c(Nc3ccc(F)c(Cl)c3)ncnc2cc1O[C@H]1CCOC1` [AFATINIB], for which the inhibition in vivo at 20 mg/kg in the series on NCI-H1975 [2] was 67.6%.
A word on the IC50: it is the point on the concentration scale where inhibition reaches its midpoint. Take `C=C(Br)C(=O)Nc1cc2c(Nc3ccc(F)c(Cl)c3)ncnc2cc1OCCOCC`: the concentration for half-maximal inhibition (IC50) in the series with NCI-H1975 [3] is 39.4 nM; in the series with HCC827, 6.39 nM; in the series with MDA-MB-453 it was 15.1 nM; in the series with A-431, 572 nM.
Regarding `CCOCCOc1cc2ncnc(Nc3ccc(F)c(Cl)c3)c2cc1NC(=O)/C=C\Cl`, the values for the half-inhibitory concentration (IC50) in the series on NCI-H1975 [3] and in the series with A-431 were 1.6 nM and 24 nM, respectively.
With `CCOCCOc1cc2ncnc(Nc3ccc(OCC(F)(F)F)c(Cl)c3)c2cc1NC(=O)/C=C/CN(C)C`, the IC50 worked out at 107 nM in the series with NCI-H1975 [3], 2.9 nM with HCC827, 2.55 nM with MDA-MB-453 and 64.1 nM with A-431.
In turn, `COCCCOc1cc2ncnc(Nc3ccc(F)c(Cl)c3)c2cc1NC(=O)/C=C/CN(C)C` came in with a concentration for half-maximal inhibition (IC50) in the series with HCC827 of 0.29 nM.
Take `CCOCCOc1cc2ncnc(Nc3ccc(F)c(Cl)c3)c2cc1NC(=O)/C=C/Cl`: the half-maximal inhibitory concentration (IC50) in the series with NCI-H1975 [3] was determined as 7.43 nM; in the series with MDA-MB-453, 14.9 nM; in the series with A-431 it was 289 nM.
On to `CC(C)OCCOc1cc2ncnc(Nc3ccc(F)c(Cl)c3)c2cc1NC(=O)/C=C/CN(C)C`, for which the IC50 in the series with HCC827 was 0.55 nM; in the series with A-431, 5.86 nM.
`CCOCCOc1cc2ncnc(Nc3ccc(F)c(Cl)c3)c2cc1NC(=O)/C=C/C(F)(F)F`: the IC50 in the series with NCI-H1975 [3] amounted to 27.6 nM; with HCC827, 0.15 nM; with MDA-MB-453 it was 18.3 nM; with A-431, 148 nM.
As to `COC[C@H](C)Oc1cc2ncnc(Nc3ccc(F)c(Cl)c3)c2cc1NC(=O)/C=C/CN(C)C`, the results for the 50% inhibitory concentration (IC50) in the series with NCI-H1975 [3] and with A-431 were 66.5 nM and 16.7 nM, respectively.
Turning to `C=C(Cl)C(=O)Nc1cc2c(Nc3ccc(F)c(Cl)c3)ncnc2cc1OCCOCC`, the half-inhibitory concentration (IC50) is 37.1 nM in the series with NCI-H1975 [3], 33.2 nM in the series on HCC827, 3.71 nM with MDA-MB-453 and 369 nM with A-431.
In the same order, the values of `CCOCCOc1ccc(Nc2ncnc3cc(OCCOCC)c(NC(=O)/C=C/CN(C)C)cc23)cc1Cl` are 6.17 nM, 0.34 nM, 2.52 nM and 13.7 nM.
Turning to `C#CC(=O)Nc1cc2c(Nc3ccc(F)c(Cl)c3)ncnc2cc1OCCOCC`, the 50% inhibitory concentration (IC50) in the series on NCI-H1975 [3] was found to be 49.3 nM; with HCC827, 1.46 nM; in the series with MDA-MB-453, 3.42 nM; in the series with A-431, 11.4 nM.
As to `C=CS(=O)(=O)Nc1cc2c(Nc3ccc(F)c(Cl)c3)ncnc2cc1OCCOCC`, the half-inhibitory concentration (IC50) in the series on NCI-H1975 [3] stood at 13.7 nM; with HCC827, 3.95 nM; in the series on MDA-MB-453 it was 130 nM; in the series on A-431, 3.37 nM.
`CCOCCOc1cc2ncnc(Nc3ccc(F)c(Cl)c3)c2cc1NC(=O)/C=C/Br`: the 50% inhibitory concentration (IC50) with NCI-H1975 [3] amounted to 8.21 nM; in the series on HCC827, 4.86 nM; in the series with MDA-MB-453, 3.99 nM; in the series on A-431, 297 nM.
With `C=C(F)C(=O)Nc1cc2c(Nc3ccc(F)c(Cl)c3)ncnc2cc1OCCOCC`, the 50% inhibitory concentration (IC50) came to 72.5 nM in the series on NCI-H1975 [3], 0.53 nM in the series on HCC827, 58.2 nM in the series on MDA-MB-453 and 54.5 nM in the series on A-431.
With `CCCOCCOc1cc2ncnc(Nc3ccc(F)c(Cl)c3)c2cc1NC(=O)/C=C/CN(C)C`, the figures for the IC50 with HCC827 and in the series with A-431 were 0.55 nM and 8.15 nM, respectively.
For the molecule `CCOCCOc1cc2ncnc(Nc3ccc(OCc4cccc(F)c4)c(Cl)c3)c2cc1NC(=O)/C=C/CN(C)C`, the IC50 is 49.7 nM in the series with NCI-H1975 [3] and 79.5 nM with A-431.
As for `CCOCCOc1cc2ncnc(Nc3ccc(OCCOC)c(Cl)c3)c2cc1NC(=O)/C=C/CN(C)C`, the IC50 in the series on NCI-H1975 [3] is 7.3 nM; with HCC827, 3.43 nM; in the series on MDA-MB-453 it was 1.65 nM; with A-431, 20.1 nM.
In the same order, the values of `C=CC(=O)Nc1cc2c(Nc3ccc(F)c(Cl)c3)ncnc2cc1OCCOCC` are 51.8 nM, 0.15 nM, 5.67 nM and 6.01 nM.
In the same order, the values of `CCOCCOc1cc2ncnc(Nc3ccc(F)c(Cl)c3)c2cc1NC(=O)/C=C\C#N` are 18.4 nM, 5.56 nM, 0.68 nM and 94.8 nM.
With `CCOCCOc1cc2ncnc(Nc3ccc(F)c(Cl)c3)c2cc1NC(=O)/C=C/C(=O)OCC`, the concentration for half-maximal inhibition (IC50) turned out to be 35.2 nM in the series on NCI-H1975 [3], 0.987 nM with HCC827, 21.6 nM in the series on MDA-MB-453 and 207 nM with A-431.
In the same order, the values of `CCOCCOc1cc2ncnc(Nc3ccc(NCCS(C)(=O)=O)c(Cl)c3)c2cc1NC(=O)/C=C/CN(C)C` are 65.6 nM, 0.53 nM, 12.7 nM and 6.48 nM.
One may read the bioavailability as the share of a dose that reaches the circulation, judged against a reference dose that is usually intravenous. Read a high bioavailability as good availability. In series [4], `CCOCCOc1cc2ncnc(Nc3ccc(F)c(Cl)c3)c2cc1NC(=O)/C=C/CN(C)C.O=C(O)/C=C\C(=O)O` had a bioavailability of 70%.
`COC[C@@H](C)Oc1cc2ncnc(Nc3ccc(F)c(Cl)c3)c2cc1NC(=O)/C=C/CN(C)C`: the 50% inhibitory concentration (IC50) in the series with NCI-H1975 [3] came out at 49.9 nM; in the series with A-431, 43 nM.
By Cmax is commonly meant the maximum level reached in the sampled fluid or tissue. The term half-life denotes the time needed for the level to fall by half in the phase considered. Read a high half-life as slow loss. The Tmax is the time at which the peak concentration occurs. For the molecule `CCOCCOc1cc2ncnc(Nc3ccc(F)c(Cl)c3)c2cc1NC(=O)/C=C/CN(C)C` [listing 2 of 2 here], in series [5], the Cmax is 92.3 ng/mL. In series [6], the half-life was 6.8 h. Also, the inhibition in vivo at 80 mg/kg in the series on NCI-H1975 [7] is 95.1%. This molecule gave a bioavailability in [4] of 46%. For the same molecule, the inhibition in vivo at 20 mg/kg in the series on NCI-H1975 [8] worked out at 82%. Besides, the concentration for half-maximal inhibition (IC50) in the series with HCC827 was determined as 0.31 nM; with MDA-MB-453 it was 0.62 nM; in the series with A-431 it was 1.52 nM; in series [11], 0.69 nM. In addition, the inhibition in vivo at 5 mg/kg in the series on NCI-H1975 [9] is 73.2%. Moreover, the time of peak concentration (Tmax) in series [10] stood at 4 h.

The record behind these values is ChEMBL document CHEMBL4330113, “Discovery of new quinazoline derivatives as irreversible dual EGFR/HER2 inhibitors and their anticancer activities - Part 1” (Bioorg Med Chem Lett, 2019).
